Laboratory results taken from patent US20250215071A1, “Novel Mcl-1 inhibitor and combination of Mcl-1 and a BH3 mimetic, such as a Bcl-2 inhibitor” (NETRIS PHARMA, priority 2022, published 2025).
Residues, ends and D or L forms follow the SMILES beside them. *: point of attachment. Cbz = O=C(OCc1ccccc1)*

Legend:
Type in all cases: cell-based, Human
[1] = system: HeLa UNC5B cells; assay: UNC5B-induced DNA fragmentation in HeLa UNC5B cells; settings: doxycycline-induced UNC5B; 18 hours
Experimental: FIG. 2. CRISPR-Cas9 screening identifies genes and molecular pathways involved in UNC5B-induced cell death. Related to FIG. 1. (A): UNC5B induction upon treatment with doxycycline. Stable HCT116 cells, inducible for UNC5B, were treated with the indicated concentrations of doxycycline (Dox). 24 hours later, protein levels of FLAG-UNC5B and GAPDH, used as housekeeping gene, were assessed by western blot. (B): UNC5B induction upon treatment with doxycycline on Hela cells. Stable Hela cells inducible for UNC5B (HeLa UNC5B) were treated with the indicated doses of Dox for 18 hours. Protein levels of His-UNC5B and β-actin, used as housekeeping gene, were measured by western blot. (C,D,E): Induction of UNC5B triggers apoptotic cell death in HCT116 cells. Stable HCTT16 cells inducible for human UNC5B were treated with Dox. To assess cell death, propidium iodide (PI) incorporation was followed in real-time up to 36 hours, using an Incucyte Zoom technology (n=3, ** p<0.01, Kolmogorov Smirnov test) (C). Apoptosis was assessed 18 hours after Dox treatment by DNA fragmentation through flow cytometry ([…] (D) and by caspase-3 activity (E), quantified by fluorometric detection kit (n=3, *p<0.05, ** p<0.01, *** p<0.001, Ordinary two-way ANOVA). Values are given as means±SEM. (F): Caspase inhibition rescues apoptosis triggered by UNC5B. HeLa UNC5B cells were treated with Dox and the pan-caspase inhibitor […] (QVD). 18 hours later, DNA fragmentation was evaluated by flow cytometry (n=3, **** p<0.0001, ordinary two-way ANOVA with Šidák's multiple comparisons test). Values are given as means±SEM. […] The number of guides showing an increase in reads compared to control condition is shown for each gene.
FIG. 4. […] 18 hours after treatment, apoptosis was measured by DNA fragmentation (A) and caspase-3 activity (B) (n=3-4, **** p<0.0001, ordinary two-way ANOVA with Tukey's multiple comparisons test). […] Protein levels of Mcl-1, Bcl-2 and Bcl-XL, as well as of UNC5B and B-actin, used as housekeeping gene, were evaluated by western blot. […]

[2] = system: caspase-3; assay: UNC5B-induced caspase-3 activity in HeLa UNC5B cells; settings: doxycycline 2 μg/mL; 18 hours
Experimental: Caspase-3 and -9 activity assays were performed as described previously (Paradisi et al., 2013; Paradisi et al., 2009). Briefly, HCT116 and HeLa cells were seeded and treated as for DNA fragmentation assay. Cells were then collected and caspase-3/caspase 9 activity assays were performed using the Caspase-3/Caspase-9 Fluorometric Assay Kit (BioVision, Milpitas, CA, USA), according to the manufacturer's instructions. Caspase activity (activity/min/mg of protein) was calculated from a 1 h kinetic cycle reading on a spectrofluorometer (405 nm/510 nm, Infinite F500, Tecan, Männedorf, Switzerland).

[3] = system: caspase-9; assay: UNC5B-induced caspase-9 activity in HeLa UNC5B cells; settings: Dox; 18 hours
Experimental: FIG. 5. UNC5B-mediated Mcl-1 degradation induces MOMP and caspase-9 activation. (A): UNC5B over-expression triggers Mitochondrial Outer Membrane Permeabilization (MOMP) in a COMMD2/CRL3 complex-dependent manner. Hela cells were transfected with scramble (siCTRL), COMMD2 (siCOMMD2-1) or RBX1 (siRBX1-1) siRNAs. 24 hours after transfection, cells were treated with Dox and after further 18 hours mitochondrial depolarization quantified by 5′,6,6′-tetrachloro-1,1′,3,3′-tetraethylbenzimi-dazolylcarbocyanine iodide (JC-1) dye staining, using NucleoCounter NC3000 (n=3, **** p<0.0001, ordinary two-way ANOVA with Tukey's multiple comparisons test). Values are given as means±SEM. (B,C,D): Apoptotic cell death induced by UNC5B over-expression requires caspase-9. HeLa UNC5B cells were transfected with scramble (siCTRL) or caspase-9 (siCASP9) siRNAs and 24 hours later treated with the indicated concentrations of Dox. Propidium iodide (PI)-positive cells were assessed in real-time up to 48 hours using Incucyte Zoom instrument (C) (n=[…], Kolmogorov-Smirnov test). DNA fragmentation was assessed by FACS analysis (D) and caspase-3 was measured using caspase-3 fluorometric kit (E), both 18 hours after treatment (n=[…], **** p<0.0001, ordinary two-way ANOVA with Šidák's multiple comparisons test). Values are given as means±SEM. […] HeLa UNC5B cells were treated with Dox and 18 hours later caspase-9 and -8 activities were assessed by fluorometric kit, using specific substrates (n=3, ^nsp>0.05, *p<0.05, Mann-Whitney test, one-tailed). […] 24 hours later, cells were treated with Dox and caspase-9 activity was measured by fluorometric kit (n=3, **** p<0.0001, ordinary two-way ANOVA with Tukey's multiple comparisons test). […] 18 hours after treatment, caspase-9 activity was assessed with the fluorometric kit (n=5, *p<0.05, ** p<0.01, *** p<0.001, **** p<0.0001, ordinary two-way ANOVA with Tukey's multiple comparisons test). […] Cells were then treated with Dox and Mcl-1 protein was evaluated by western blot. […]

[4] = system: Mcl-1; assay: Mcl-1 protein levels by western blot in HeLa UNC5B cells; settings: endogenous Mcl-1; 2 μg/mL Dox; BTZ 1 μM, QVD 10 µM; 16 hours
Experimental: FIG. 4. UNC5B triggers proteasomal degradation of Mcl-1. (A,B): UNC5B-induced apoptosis requires proteasome activity. Stable Hela cells inducible for UNC5B (HeLa UNC5B) were treated with doxycycline (Dox) at 2 μg/mL, in combination with the indicated doses of the proteasome inhibitors MG132 and bortezomib (BTZ). 18 hours after treatment, apoptosis was measured by DNA fragmentation (A) and caspase-3 activity (B) (n=3-4, **** p<0.0001, ordinary two-way ANOVA with Tukey's multiple comparisons test). Values are given as means±SEM Treatment with proteasome inhibitors was sufficient to strongly reduce apoptosis induction upon UNC5B over-expression. (C): UNC5B triggers Mcl-1 degradation. HeLa UNC5B cells were treated with 2 μg/mL of Dox, in combination with bortezomib (BTZ, 1 μM) and the pan-caspase inhibitor Q-VD-OPh (QVD, 10 µM) inhibitors. 16 hours after treatment, cells were lysed by scraping and sonication in SDS-containing buffer. Protein levels of Mcl-1, Bcl-2 and Bcl-XL, as well as of UNC5B and B-actin, used as housekeeping gene, were evaluated by western blot. […] UNC5B over-expression specifically promoted Mcl-1 protein decrease. […] (D): Mcl-1 degradation induced by UNC5B requires COMMD2/CRL3 complex. HeLa UNC5B cells were transfected with scramble (siCTRL), COMMD2 (siCOMMD2) or RBX1 (siRBX1) siRNAs. […] Protein levels of Mcl-1, UNC5B and Ku80, used as housekeeping protein, were evaluated by western blot. […] Stable HeLa UNC5B cells, constitutively expressing Mcl-1 or empty vector, were treated with doxycycline and apoptosis was evaluated 18 hours later by DNA fragmentation (n=3, ^nsp>0.05, ordinary two-way ANOVA with Sidak's multiple comparisons test). […] Stable HeLa UNC5B cells, constitutively expressing Mcl-1, Bcl-2 or Bcl-XL were treated with Dox and protein levels were evaluated as described in (C). […] 18 hours later, protein levels of Mcl-1, UNC5B and β-actin, used as housekeeping gene, were evaluated by western blot. […] Cells were harvested at the indicated times after CHX treatment, and protein levels were assessed by western blot. […]

| SMILES | UNC5B-induced apoptosis (DNA fragmentation) [1] | UNC5B-induced caspase-3 activation [2] | UNC5B-induced caspase-9 activation [3] | Mcl-1 protein levels / degradation triggered by UNC5B [4] |
| --- | --- | --- | --- | --- |
| CC(C)C[C@@H](C=O)NC(=O)[C@H](CC(C)C)NC(=O)[C@H](CC(C)C)NC(=O)OCc1ccccc1 [MG132] (Cbz-Leu-Leu-Leu-aldehyde) | suppressed | suppressed | sufficient to prevent UNC5B-induced caspase-9 activation | – |
| CC(C)[C@H](NC(=O)c1ccc2ccccc2n1)C(=O)N[C@@H](CC(=O)O)C(=O)COc1c(F)cccc1F [Q-VD-OPh] | completely prevented apoptosis induction | – | – | not sufficient to prevent Mcl-1 degradation |
